Test results from BindingDB's records for doi:10.1021/jm060133g (Pfizer, 2006).
Blank lines part the entries; values can stand above or below the compound they belong to.

Assays:
[1] = target: Neprilysin (Canis familiaris); test: Inhibition of dog NEP

Compound: CCCC(CC1(C(=O)N[C@@H]2CC[C@H](C(N)=O)C2)CCCC1)C(=O)O (stereo partly drawn) [2-((1-(((1R,3S)-3-carbamoylcyclopentyl)carbamoyl)cyclopentyl)methyl)pentanoic acid]
IC50 [1]: 213 nM
IC50 (Inhibition of dog ACE): > 3000 nM

Compound: CCCC(CC1(C(=O)Nc2nnc(CC3CC3)s2)CCCC1)C(=O)O (stereo not given) [2-((1-((5-(cyclopropylmethyl)-1,3,4-thiadiazol-2-yl)carbamoyl)cyclopentyl)methyl)pentanoic acid]
IC50 (Inhibition of dog ACE): > 3000 nM

Compound: CCCC(CC1(C(=O)N[C@H](CO)Cc2ccccc2)CCCC1)C(=O)O (stereo partly drawn) [2-((1-(((S)-1-hydroxy-3-phenylpropan-2-yl)carbamoyl)cyclopentyl)methyl)pentanoic acid]
IC50 [1]: 384 nM
IC50 (Inhibition of dog ACE): > 3000 nM

Compound: CCCC(CC1(c2nnc(-c3ccc(=O)n(Cc4ccccc4)c3)o2)CCCC1)C(=O)O (stereo not given) [2-((1-(5-(1-benzyl-6-oxo-1,6-dihydropyridin-3-yl)-1,3,4-oxadiazol-2-yl)cyclopentyl)methyl)pentanoic acid]
IC50 [1]: 1140 nM
IC50 (Inhibition of dog ACE): > 3000 nM

Compound: CCCNc1ccnc(NC(=O)C2(CC(CCC)C(=O)O)CCCC2)n1 (stereo not given) [2-((1-((4-(propylamino)pyrimidin-2-yl)carbamoyl)cyclopentyl)methyl)pentanoic acid]
IC50 [1]: > 2000 nM
IC50 (Inhibition of dog ACE): > 3000 nM

IC50 [1]: 1710 nM
Compound: CCCC(CC1(C(=O)Nc2ncccc2CC)CCCC1)C(=O)O (stereo not given) [2-((1-((3-ethylpyridin-2-yl)carbamoyl)cyclopentyl)methyl)pentanoic acid]

Compound: CCCC(CC1(C(=O)N[C@@H]2CCN(Cc3ccccc3)C2)CCCC1)C(=O)O (stereo partly drawn) [2-((1-(((R)-1-benzylpyrrolidin-3-yl)carbamoyl)cyclopentyl)methyl)pentanoic acid]
IC50 [1]: 1060 nM
IC50 (Inhibition of dog ACE): > 3000 nM

Compound: CCCC(CC1(C(=O)Nc2nnc(CC(C)C)s2)CCCC1)C(=O)O (stereo not given) [2-((1-((5-isobutyl-1,3,4-thiadiazol-2-yl)carbamoyl)cyclopentyl)methyl)pentanoic acid]
IC50 [1]: 124 nM
IC50 (Inhibition of dog ACE): > 3000 nM

Compound: CCCC(CC1(C(=O)NC2CCCC(C(=O)N(C)C)C2)CCCC1)C(=O)O (stereo not given) [2-((1-((3-(dimethylcarbamoyl)cyclohexyl)carbamoyl)cyclopentyl)methyl)pentanoic acid]
IC50 (Inhibition of dog ACE): > 3000 nM

Compound: CCCC(CC1(C(=O)N[C@@H]2CCCC[C@@H]2Cc2ccccc2)CCCC1)C(=O)O (stereo partly drawn) [2-((1-(((1R,2R)-2-benzylcyclohexyl)carbamoyl)cyclopentyl)methyl)pentanoic acid]
IC50 [1]: 195 nM
IC50 (Inhibition of dog ACE): > 3000 nM

Compound: CCCC(CC1(C(=O)Nc2ccc(=O)n(Cc3ccccc3)c2)CCCC1)C(=O)O (stereo not given) [2-((1-((1-benzyl-6-oxo-1,6-dihydropyridin-3-yl)carbamoyl)cyclopentyl)methyl)pentanoic acid]
IC50 [1]: 313 nM
IC50 (Inhibition of dog ACE): > 3000 nM

IC50 [1]: > 3000 nM
Compound: CCCC(CC1(NC(=O)c2ccc(=O)n(Cc3ccccc3)c2)CCCC1)C(=O)O (stereo not given) [2-((1-(1-benzyl-2-oxo-1,2-dihydropyridine-5-carboxamido)cyclopentyl)methyl)pentanoic acid]

Compound: CCCC(CC1(C(=O)Nc2nnc(CC)s2)CCCC1)C(=O)O (racemic) [rac-2-((1-((5-ethyl-1,3,4-thiadiazol-2-yl)carbamoyl)cyclopentyl)methyl)pentanoic acid]
IC50 (Inhibition of dog ACE): > 3000 nM

Compound: CCC[C@H](CC1(C(=O)Nc2nnc(C)s2)CCCC1)C(=O)O [(R)-2-((1-((5-methyl-1,3,4-thiadiazol-2-yl)carbamoyl)cyclopentyl)methyl)pentanoic acid]
IC50 (Inhibition of dog ACE): > 3000 nM

Compound: CCC[C@@H](CC1(C(=O)Nc2nnc(CC)s2)CCCC1)C(=O)O [(S)-2-((1-((5-ethyl-1,3,4-thiadiazol-2-yl)carbamoyl)cyclopentyl)methyl)pentanoic acid]
IC50 (Inhibition of dog ACE): > 3000 nM

Compound: CCCC(CC1(C(=O)Nc2nnc(-c3ccccc3)s2)CCCC1)C(=O)O (stereo not given) [2-((1-((5-phenyl-1,3,4-thiadiazol-2-yl)carbamoyl)cyclopentyl)methyl)pentanoic acid]
IC50 (Inhibition of dog ACE): > 3000 nM

Compound: CCCC(CC1(C(=O)N[C@H]2CC[C@@H](C(=O)N(C)C)CC2)CCCC1)C(=O)O (stereo partly drawn) [cis-2-((1-((4-(dimethylcarbamoyl)cyclohexyl)carbamoyl)cyclopentyl)methyl)pentanoic acid]
IC50 (Inhibition of dog ACE): > 3000 nM

Compound: CCc1nnc(NC(=O)C2(CC(CCC(C)C)C(=O)O)CCCC2)s1 (stereo not given) [2-((1-((5-ethyl-1,3,4-thiadiazol-2-yl)carbamoyl)cyclopentyl)methyl)-5-methylhexanoic acid]
IC50 (Inhibition of dog ACE): > 3000 nM

Compound: CCCC(CC1(C(=O)NCc2ccc3c(c2)OCO3)CCCC1)C(=O)O (stereo not given) [2-((1-((benzo[d][1,3]dioxol-5-ylmethyl)carbamoyl)cyclopentyl)methyl)pentanoic acid]
IC50 (Inhibition of dog ACE): > 3000 nM

Compound: CCc1nnc(NC(=O)C2(CCC(=O)O)CCCC2)s1 [3-(1-((5-ethyl-1,3,4-thiadiazol-2-yl)carbamoyl)cyclopentyl)propanoic acid]
IC50 [1]: 237 nM
IC50 (Inhibition of dog ACE): > 3000 nM

Compound: CCCC(CC1(c2nnc(Cc3ccccc3)o2)CCCC1)C(=O)O (stereo not given) [2-((1-(5-benzyl-1,3,4-oxadiazol-2-yl)cyclopentyl)methyl)pentanoic acid]
IC50 [1]: 3100 nM
IC50 (Inhibition of dog ACE): > 3000 nM

Compound: CCc1nnc(NC(=O)C2(CC(CCc3ccccc3)C(=O)O)CCCC2)s1 (stereo not given) [2-((1-((5-ethyl-1,3,4-thiadiazol-2-yl)carbamoyl)cyclopentyl)methyl)-4-phenylbutanoic acid]
IC50 [1]: 46 nM
IC50 (Inhibition of dog ACE): > 3000 nM

Compound: CCCC(CC1(C(=O)NC2(CO)Cc3ccccc3C2)CCCC1)C(=O)O (racemic) [rac-2-((1-((2-(hydroxymethyl)-2,3-dihydro-1H-inden-2-yl)carbamoyl)cyclopentyl)methyl)pentanoic acid]
IC50 (Inhibition of dog ACE): > 3000 nM

Compound: CCCC(CC1(C(=O)Nc2nncs2)CCCC1)C(=O)O (stereo not given) [2-((1-((1,3,4-thiadiazol-2-yl)carbamoyl)cyclopentyl)methyl)pentanoic acid]
IC50 (Inhibition of dog ACE): > 3000 nM

Compound: CCC[C@H](CC1(C(=O)Nc2nnc(CC)s2)CCCC1)C(=O)O [(R)-2-((1-((5-ethyl-1,3,4-thiadiazol-2-yl)carbamoyl)cyclopentyl)methyl)pentanoic acid]
IC50 (Inhibition of dog ACE): > 3000 nM

Compound: CCCC(CC1(C(=O)NC2Cc3ccccc3C2)CCCC1)C(=O)O (stereo not given) [2-((1-((2,3-dihydro-1H-inden-2-yl)carbamoyl)cyclopentyl)methyl)pentanoic acid]
IC50 (Inhibition of dog ACE): > 3000 nM

Compound: CCCC(CC1(C(=O)Nc2cc(Cc3ccccc3)ccn2)CCCC1)C(=O)O (stereo not given) [2-((1-((4-benzylpyridin-2-yl)carbamoyl)cyclopentyl)methyl)pentanoic acid]
IC50 [1]: 96 nM
IC50 (Inhibition of dog ACE): > 3000 nM

Compound: CCCC(CC1(C(=O)NCc2nnc(C)s2)CCCC1)C(=O)O (stereo not given) [2-((1-(((5-methyl-1,3,4-thiadiazol-2-yl)methyl)carbamoyl)cyclopentyl)methyl)pentanoic acid]
IC50 (Inhibition of dog ACE): > 3000 nM

Compound: CCC[C@@H](CC1(C(=O)Nc2nnc(C)s2)CCCC1)C(=O)O [(S)-2-((1-((5-methyl-1,3,4-thiadiazol-2-yl)carbamoyl)cyclopentyl)methyl)pentanoic acid]
IC50 (Inhibition of dog ACE): > 5000 nM

IC50 [1]: 630 nM
Compound: CCCC(CC1(C(=O)Nc2cc(C)ccn2)CCCC1)C(=O)O (stereo not given) [2-((1-((4-methylpyridin-2-yl)carbamoyl)cyclopentyl)methyl)pentanoic acid]

Compound: CCCC(CC1(C(=O)Nc2ccc(OC)nn2)CCCC1)C(=O)O (stereo not given) [2-((1-((6-methoxypyridazin-3-yl)carbamoyl)cyclopentyl)methyl)pentanoic acid]
IC50 (Inhibition of dog ACE): > 3000 nM

Compound: CCCC(CC1(C(=O)NC2(CO)CCCC2)CCCC1)C(=O)O (stereo not given) [2-((1-((1-(hydroxymethyl)cyclopentyl)carbamoyl)cyclopentyl)methyl)pentanoic acid]
IC50 [1]: 1710 nM
IC50 (Inhibition of dog ACE): > 3000 nM

Compound: CCCC(CC1(C(=O)Nc2cn(CC)nn2)CCCC1)C(=O)O (stereo not given) [2-((1-((1-ethyl-1H-1,2,3-triazol-4-yl)carbamoyl)cyclopentyl)methyl)pentanoic acid]
IC50 (Inhibition of dog ACE): > 3000 nM

Compound: CCCCC(CC1(C(=O)Nc2nnc(CC)s2)CCCC1)C(=O)O (stereo not given) [2-((1-((5-ethyl-1,3,4-thiadiazol-2-yl)carbamoyl)cyclopentyl)methyl)hexanoic acid]
IC50 (Inhibition of dog ACE): > 3000 nM

Compound: CCCC(CC1(C(=O)N[C@H](C)c2ccccc2)CCCC1)C(=O)O (stereo partly drawn) [2-((1-(((R)-1-phenylethyl)carbamoyl)cyclopentyl)methyl)pentanoic acid]
IC50 (Inhibition of dog ACE): > 3000 nM

IC50 [1]: > 2000 nM
Compound: CCCC(CC1(C(=O)Nc2cccc(CC)n2)CCCC1)C(=O)O (stereo not given) [2-((1-((6-ethylpyridin-2-yl)carbamoyl)cyclopentyl)methyl)pentanoic acid]

Compound: CCCC(CC1(C(=O)Nc2nnc(C)s2)CCCC1)C(=O)O (racemic) [rac-2-((1-((5-methyl-1,3,4-thiadiazol-2-yl)carbamoyl)cyclopentyl)methyl)pentanoic acid]
IC50 (Inhibition of dog ACE): > 3000 nM

Compound: CCCC(CC1(C(=O)N[C@H]2CC[C@@H](C(N)=O)CC2)CCCC1)C(=O)O (stereo partly drawn) [cis-2-((1-((4-carbamoylcyclohexyl)carbamoyl)cyclopentyl)methyl)pentanoic acid]
IC50 [1]: 150 nM
IC50 (Inhibition of dog ACE): > 3000 nM

IC50 [1]: > 2000 nM
Compound: CCCC(CC1(C(=O)NCCc2ccc(Cl)cc2)CCCC1)C(=O)O (stereo not given) [2-((1-((4-chlorophenethyl)carbamoyl)cyclopentyl)methyl)pentanoic acid]

Compound: CCC[C@@H](CC1(C(=O)NC2(CO)Cc3ccccc3C2)CCCC1)C(=O)O [(S)-2-((1-((2-(hydroxymethyl)-2,3-dihydro-1H-inden-2-yl)carbamoyl)cyclopentyl)methyl)pentanoic acid]
IC50 (Inhibition of dog ACE): > 3000 nM

Compound: CCCCc1ccnc(NC(=O)C2(CC(CCC)C(=O)O)CCCC2)c1 (stereo not given) [2-((1-((4-butylpyridin-2-yl)carbamoyl)cyclopentyl)methyl)pentanoic acid]
IC50 [1]: 184 nM
IC50 (Inhibition of dog ACE): > 3000 nM

Compound: CCCC(CC1(C(=O)Nc2ccccn2)CCCC1)C(=O)O (stereo not given) [2-((1-(pyridin-2-ylcarbamoyl)cyclopentyl)methyl)pentanoic acid]
IC50 (Inhibition of dog ACE): > 3000 nM

Compound: CCCC(CC1(C(=O)N[C@@H]2CCCC[C@@H]2CCC)CCCC1)C(=O)O (stereo partly drawn) [2-((1-(((1R,2S)-2-propylcyclohexyl)carbamoyl)cyclopentyl)methyl)pentanoic acid]
IC50 (Inhibition of dog ACE): > 3000 nM

Compound: CCC[C@H](CC1(C(=O)NC2(CO)Cc3ccccc3C2)CCCC1)C(=O)O [(R)-2-((1-((2-(hydroxymethyl)-2,3-dihydro-1H-inden-2-yl)carbamoyl)cyclopentyl)methyl)pentanoic acid]
IC50 (Inhibition of dog ACE): > 3000 nM

Compound: CCCC(CC1(C(=O)Nc2nnc(Cc3ccccc3)s2)CCCC1)C(=O)O (stereo not given) [2-((1-((5-benzyl-1,3,4-thiadiazol-2-yl)carbamoyl)cyclopentyl)methyl)pentanoic acid]
IC50 (Inhibition of dog ACE): > 3000 nM
